{"source": "ChEMBL document CHEMBL3044829", "about": "“New carbodithioate derivatives: synthesis, characterization, and in vitro antibacterial, antifungal, antitubercular, and antimalarial activity” (Med Chem Res, 2013)", "key": {"[1]": {"system": "Mycobacterium tuberculosis", "test": "Antitubercular activity against Mycobacterium tuberculosis H37Rv MTCC 200 assessed as growth inhibition by BACTEC MGIT method", "type": "functional"}, "Staphylococcus aureus": {"system": "Staphylococcus aureus", "test": "Antimicrobial activity against Staphylococcus aureus MTCC 96 assessed as growth inhibition by broth microdilution method", "type": "functional"}, "Aspergillus niger": {"system": "Aspergillus niger", "test": "Antimicrobial activity against Aspergillus niger MTCC 282 assessed as growth inhibition by broth microdilution method", "type": "functional"}, "Pseudomonas aeruginosa": {"system": "Pseudomonas aeruginosa", "test": "Antimicrobial activity against Pseudomonas aeruginosa MTCC 1688 assessed as growth inhibition by broth microdilution method", "type": "functional"}, "[2]": {"system": "Mycobacterium tuberculosis", "test": "Antitubercular activity against Mycobacterium tuberculosis H37Rv MTCC 200 assessed as growth inhibition at 6.25 ug/ml by BACTEC MGIT method", "type": "functional"}, "Escherichia coli": {"system": "Escherichia coli", "test": "Antimicrobial activity against Escherichia coli MTCC 443 assessed as growth inhibition by broth microdilution method", "type": "functional"}, "Bacillus subtilis": {"system": "Bacillus subtilis", "test": "Antimicrobial activity against Bacillus subtilis MTCC 441 assessed as growth inhibition by broth microdilution method", "type": "functional"}, "Klebsiella pneumoniae": {"system": "Klebsiella pneumoniae", "test": "Antimicrobial activity against Klebsiella pneumoniae MTCC 109 assessed as growth inhibition by broth microdilution method", "type": "functional"}, "Aspergillus clavatus": {"system": "Aspergillus clavatus", "test": "Antimicrobial activity against Aspergillus clavatus MTCC 1323 assessed as growth inhibition by broth microdilution method", "type": "functional"}, "Vero": {"system": "Vero", "test": "Cytotoxicity against Chlorocebus aethiops (African green monkey) Vero cells assessed as inhibition of cell viability at equal to and greater than MIC for Mycobacterium tuberculosis H37Rv after 72 hr by MTT assay", "type": "cell-based", "conditions": "chlorocebus sabaeus"}, "Plasmodium falciparum": {"system": "Plasmodium falciparum", "test": "Antimalarial activity against chloroquine-sensitive Plasmodium falciparum 3D7 assessed as inhibition of complete maturation into schizonts after 40 hr", "type": "functional", "conditions": "3D7, 40 h"}, "[3]": {"system": "Mycobacterium tuberculosis", "test": "Antitubercular activity against Mycobacterium tuberculosis H37Rv MTCC 200 assessed as growth inhibition at MIC by L.J. MIC method", "type": "functional"}, "Streptococcus pyogenes": {"system": "Streptococcus pyogenes", "test": "Antimicrobial activity against Streptococcus pyogenes MTCC 442 assessed as growth inhibition by broth microdilution method", "type": "functional"}, "Candida albicans": {"system": "Candida albicans", "test": "Antimicrobial activity against Candida albicans MTCC 227 assessed as growth inhibition by broth microdilution method", "type": "functional"}, "[4]": {"system": "Mycobacterium tuberculosis", "test": "Antitubercular activity against Mycobacterium tuberculosis H37Rv MTCC 200 assessed as growth inhibition by L.J. MIC method", "type": "functional"}}, "data": [{"compound": "O=C1C(=O)N(CCCSC(=S)N2CCN(c3ccc(Cl)c(Cl)c3)CC2)c2ccc(Br)cc21", "values": [{"measurement": "MIC", "setting": "[1]", "result": 6.25, "unit": "µg/mL"}, {"measurement": "MIC99", "setting": "Staphylococcus aureus", "result": 200, "unit": "µg/mL"}, {"measurement": "MIC99", "setting": "Aspergillus niger", "result": 100, "unit": "µg/mL"}, {"measurement": "MIC99", "setting": "Pseudomonas aeruginosa", "result": 100, "unit": "µg/mL"}, {"measurement": "inhibition at 6.25 µg/mL", "setting": "[2]", "result": 99, "unit": "%"}, {"measurement": "MIC99", "setting": "Escherichia coli", "result": 200, "unit": "µg/mL"}, {"measurement": "MIC99", "setting": "Bacillus subtilis", "result": 250, "unit": "µg/mL"}, {"measurement": "MIC99", "setting": "Klebsiella pneumoniae", "result": 250, "unit": "µg/mL"}, {"measurement": "MIC99", "setting": "Aspergillus clavatus", "result": 500, "unit": "µg/mL"}, {"measurement": "Activity", "setting": "Vero", "result": "Non-toxic"}, {"measurement": "MIC", "setting": "Plasmodium falciparum", "result": 0.25, "unit": "µg/mL"}, {"measurement": "inhibition (Growth inhibition)", "setting": "[3]", "result": 94, "unit": "%"}, {"measurement": "MIC99", "setting": "Streptococcus pyogenes", "result": 100, "unit": "µg/mL"}, {"measurement": "MIC99", "setting": "Candida albicans", "result": 250, "unit": "µg/mL"}, {"measurement": "MIC", "setting": "[4]", "result": 100, "unit": "µg/mL"}]}, {"compound": "O=C1C(=O)N(CCSC(=S)N2CCN(c3ccc(Cl)c(Cl)c3)CC2)c2ccccc21", "values": [{"measurement": "MIC", "setting": "[1]", "result": "> 6.25", "unit": "µg/mL"}, {"measurement": "MIC99", "setting": "Staphylococcus aureus", "result": 250, "unit": "µg/mL"}, {"measurement": "MIC99", "setting": "Aspergillus niger", "result": 500, "unit": "µg/mL"}, {"measurement": "MIC99", "setting": "Pseudomonas aeruginosa", "result": 100, "unit": "µg/mL"}, {"measurement": "inhibition at 6.25 µg/mL", "setting": "[2]", "result": 92, "unit": "%"}, {"measurement": "MIC99", "setting": "Escherichia coli", "result": 500, "unit": "µg/mL"}, {"measurement": "MIC99", "setting": "Bacillus subtilis", "result": 200, "unit": "µg/mL"}, {"measurement": "MIC99", "setting": "Klebsiella pneumoniae", "result": 500, "unit": "µg/mL"}, {"measurement": "MIC99", "setting": "Aspergillus clavatus", "result": 500, "unit": "µg/mL"}, {"measurement": "Activity", "setting": "Vero", "result": "Non-toxic"}, {"measurement": "MIC", "setting": "Plasmodium falciparum", "result": 0.25, "unit": "µg/mL"}, {"measurement": "inhibition (Growth inhibition)", "setting": "[3]", "result": 87, "unit": "%"}, {"measurement": "MIC99", "setting": "Streptococcus pyogenes", "result": 100, "unit": "µg/mL"}, {"measurement": "MIC99", "setting": "Candida albicans", "result": "> 1000", "unit": "µg/mL"}, {"measurement": "MIC", "setting": "[4]", "result": 250, "unit": "µg/mL"}]}, {"compound": "CCn1cc(C(=O)O)c(=O)c2cc(F)c(N3CCNCC3)cc21", "note": "[NORFLOXACIN]", "values": [{"measurement": "MIC99", "setting": "Staphylococcus aureus", "result": "≤ 10", "unit": "µg/mL"}, {"measurement": "MIC99", "setting": "Pseudomonas aeruginosa", "result": "≤ 10", "unit": "µg/mL"}, {"measurement": "MIC99", "setting": "Escherichia coli", "result": "≤ 10", "unit": "µg/mL"}, {"measurement": "MIC99", "setting": "Bacillus subtilis", "result": "≤ 10", "unit": "µg/mL"}, {"measurement": "MIC99", "setting": "Klebsiella pneumoniae", "result": "≤ 10", "unit": "µg/mL"}, {"measurement": "MIC99", "setting": "Streptococcus pyogenes", "result": "≤ 10", "unit": "µg/mL"}]}, {"compound": "NNC(=O)c1ccncc1", "note": "[ISONIAZID]", "values": [{"measurement": "MIC", "setting": "[1]", "result": 0.2, "unit": "µg/mL"}]}, {"compound": "O=C1C(=O)N(CCSC(=S)N2CCN(c3ccc(Cl)c(Cl)c3)CC2)c2ccc(Cl)cc21", "values": [{"measurement": "MIC", "setting": "[1]", "result": "> 6.25", "unit": "µg/mL"}, {"measurement": "MIC99", "setting": "Staphylococcus aureus", "result": 500, "unit": "µg/mL"}, {"measurement": "MIC99", "setting": "Aspergillus niger", "result": "> 1000", "unit": "µg/mL"}, {"measurement": "MIC99", "setting": "Pseudomonas aeruginosa", "result": 250, "unit": "µg/mL"}, {"measurement": "inhibition at 6.25 µg/mL", "setting": "[2]", "result": 98, "unit": "%"}, {"measurement": "MIC99", "setting": "Escherichia coli", "result": 500, "unit": "µg/mL"}, {"measurement": "MIC99", "setting": "Bacillus subtilis", "result": 100, "unit": "µg/mL"}, {"measurement": "MIC99", "setting": "Klebsiella pneumoniae", "result": 250, "unit": "µg/mL"}, {"measurement": "MIC99", "setting": "Aspergillus clavatus", "result": 500, "unit": "µg/mL"}, {"measurement": "Activity", "setting": "Vero", "result": "Non-toxic"}, {"measurement": "MIC", "setting": "Plasmodium falciparum", "result": 0.061, "unit": "µg/mL"}, {"measurement": "inhibition (Growth inhibition)", "setting": "[3]", "result": 96, "unit": "%"}, {"measurement": "MIC99", "setting": "Streptococcus pyogenes", "result": 250, "unit": "µg/mL"}, {"measurement": "MIC99", "setting": "Candida albicans", "result": "> 1000", "unit": "µg/mL"}, {"measurement": "MIC", "setting": "[4]", "result": 100, "unit": "µg/mL"}]}, {"compound": "O=C1C(=O)N(CCSC(=S)N2CCN(c3ccc(Cl)c(Cl)c3)CC2)c2ccc(F)cc21", "values": [{"measurement": "MIC", "setting": "[1]", "result": 6.25, "unit": "µg/mL"}, {"measurement": "MIC99", "setting": "Staphylococcus aureus", "result": 100, "unit": "µg/mL"}, {"measurement": "MIC99", "setting": "Aspergillus niger", "result": 100, "unit": "µg/mL"}, {"measurement": "MIC99", "setting": "Pseudomonas aeruginosa", "result": 100, "unit": "µg/mL"}, {"measurement": "inhibition at 6.25 µg/mL", "setting": "[2]", "result": 99, "unit": "%"}, {"measurement": "MIC99", "setting": "Escherichia coli", "result": 62.5, "unit": "µg/mL"}, {"measurement": "MIC99", "setting": "Bacillus subtilis", "result": 200, "unit": "µg/mL"}, {"measurement": "MIC99", "setting": "Klebsiella pneumoniae", "result": 62.5, "unit": "µg/mL"}, {"measurement": "MIC99", "setting": "Aspergillus clavatus", "result": 100, "unit": "µg/mL"}, {"measurement": "Activity", "setting": "Vero", "result": "Non-toxic"}, {"measurement": "MIC", "setting": "Plasmodium falciparum", "result": 0.043, "unit": "µg/mL"}, {"measurement": "inhibition (Growth inhibition)", "setting": "[3]", "result": 99, "unit": "%"}, {"measurement": "MIC99", "setting": "Streptococcus pyogenes", "result": 62.5, "unit": "µg/mL"}, {"measurement": "MIC99", "setting": "Candida albicans", "result": 100, "unit": "µg/mL"}, {"measurement": "MIC", "setting": "[4]", "result": 3.1, "unit": "µg/mL"}]}, {"compound": "NYSTATIN", "values": [{"measurement": "MIC99", "setting": "Aspergillus niger", "result": 100, "unit": "µg/mL"}, {"measurement": "MIC99", "setting": "Aspergillus clavatus", "result": 100, "unit": "µg/mL"}, {"measurement": "MIC99", "setting": "Candida albicans", "result": 100, "unit": "µg/mL"}]}, {"compound": "O=C1C(=O)N(CCSC(=S)N2CCN(c3ccc(Cl)c(Cl)c3)CC2)c2ccc(Br)cc21", "values": [{"measurement": "MIC", "setting": "[1]", "result": 6.25, "unit": "µg/mL"}, {"measurement": "MIC99", "setting": "Staphylococcus aureus", "result": 250, "unit": "µg/mL"}, {"measurement": "MIC99", "setting": "Aspergillus niger", "result": 200, "unit": "µg/mL"}, {"measurement": "MIC99", "setting": "Pseudomonas aeruginosa", "result": 62.5, "unit": "µg/mL"}, {"measurement": "inhibition at 6.25 µg/mL", "setting": "[2]", "result": 99, "unit": "%"}, {"measurement": "MIC99", "setting": "Escherichia coli", "result": 100, "unit": "µg/mL"}, {"measurement": "MIC99", "setting": "Bacillus subtilis", "result": 250, "unit": "µg/mL"}, {"measurement": "MIC99", "setting": "Klebsiella pneumoniae", "result": 250, "unit": "µg/mL"}, {"measurement": "MIC99", "setting": "Aspergillus clavatus", "result": 500, "unit": "µg/mL"}, {"measurement": "Activity", "setting": "Vero", "result": "Non-toxic"}, {"measurement": "MIC", "setting": "Plasmodium falciparum", "result": 0.052, "unit": "µg/mL"}, {"measurement": "inhibition (Growth inhibition)", "setting": "[3]", "result": 99, "unit": "%"}, {"measurement": "MIC99", "setting": "Streptococcus pyogenes", "result": 62.5, "unit": "µg/mL"}, {"measurement": "MIC99", "setting": "Candida albicans", "result": 200, "unit": "µg/mL"}, {"measurement": "MIC", "setting": "[4]", "result": 6.15, "unit": "µg/mL"}]}, {"compound": "CC[C@@H](CO)NCCN[C@@H](CC)CO", "note": "[ETHAMBUTOL]", "values": [{"measurement": "MIC", "setting": "[1]", "result": 3.12, "unit": "µg/mL"}, {"measurement": "inhibition at 6.25 µg/mL", "setting": "[2]", "result": 99, "unit": "%"}]}, {"compound": "COC1=CC(=O)C[C@@H](C)[C@]12Oc1c(Cl)c(OC)cc(OC)c1C2=O", "note": "[GRISEOFULVIN]", "values": [{"measurement": "MIC99", "setting": "Aspergillus niger", "result": 100, "unit": "µg/mL"}, {"measurement": "MIC99", "setting": "Aspergillus clavatus", "result": 100, "unit": "µg/mL"}, {"measurement": "MIC99", "setting": "Candida albicans", "result": 500, "unit": "µg/mL"}]}]}
